The results in this text go back to ChEMBL document CHEMBL2040829, “Highly regioselective synthesis of N-3 organophosphorous derivatives of 3,4-dihydropyrimidin-2(1H)-ones and their calcium channel binding studies” (Eur J Med Chem, 2012).

Molecules are shown by their SMILES.

The nature of the assay: Inhibition of calcium channel in pig carotid artery assessed as relaxation of KCl-induced vascular smooth muscle contraction.

Regarding `COC(=O)C1=C(C)NC(C)=C(C(=O)OC)C1c1ccccc1[N+](=O)[O-]` [NIFEDIPINE], the IC50 (usually the point on the concentration scale where inhibition reaches its midpoint) was determined as 10 nM.
